Assay [1] relates to HCC1954 HER2 amplified breast cancer cells. To be noted: lapatinib 5 μM, crizotinib 1 μM, twice weekly. The method, then:
Cells were treated twice weekly for the indicated times.
The effects of MET kinase inhibition to delay lapatinib resistance in HCC 1954 cells were examined.

For assay [2], the system named is BRAF mutant melanoma cell lines. In words: Syto 60 cell viability, HGF rescue from PLX[…]. The format is cell-based, Human. The method, then: Cells were treated twice weekly for the indicated times. […] Error bars represent mean+/−s.e.m.
Cell viability was assessed using the nucleic acid stain Syto 60 (Invitrogen). Cells (3000-5000 per well) were seeded into 96 well plates and allowed to adhere overnight. The next day, cells were treated with (or without) 50 ng/mL RTK ligand and concomitantly exposed to an increasing concentration range of the relevant kinase inhibitor. […] Cell viability was calculated by dividing the fluorescence obtained from the drug-treated cells by the fluorescence obtained from the control (no drug) treated cells.

Assay [3] concerns kinase-addicted cancer cell lines. Briefly: RTK ligand matrix screen, Syto 60 cell viability. The settings on record: six kinase addicted cell lines, six RTK ligands. The format is cell-based, Human.
The test system of a further assay is 928MEL xenografts. In words: Xenograft tumour growth assay. The format is in vivo, CRL C.B-17 SCID.bg mice. To be noted: for tumor regression, B-raf antagonist plus c-met antagonist versus PLX[…] alone: PLX[…]-treated xenografts. On the procedure:
[…] Differences between the 2 groups were determined using two-way ANOVA (*=0.0008).
All procedures conformed to the guidelines and principles set by the Institutional Animal care and Use Committee of Genentech and were carried out in an AAALAC (Association for the Assessment and Accreditation of Laboratory Animal care) accredited facility. […] Tumor volumes were calculated using the formula (Lx(W×W))/2. A partial response (PR) in this example was defined as a reduction in tumour volume greater than 50% but less than 100%. A complete response (CR) in this example was defined as 100% reduction in tumour volume. […]

Assay [4] relates to BRAF mutant metastatic melanoma patients. In words: BRIM2 clinical trial, outcome by plasma HGF level. The format is in vivo, human. To be noted: PLX[…]-treated patients.
Method: Plasma was obtained from metastatic melanoma patients pre-dose cycle one and the concentration of HGF in patient-derived plasma were quantitatively measured using a sandwich enzyme-linked immunosorbent assay (ELISA). Wells of NUNC MaxiSorp microtiter plates were coated (ON, 4° C.) with 0.5 μg/mL of affinity-purified Goat antihuman hepatocyte growth factor polyclonal antibody in 100 μL of coating buffer (0.05M sodium carbonate buffer, pH 9.6) and were then blocked with 0.5% bovine serum albumin (BSA) in assay buffer (PBS, 0.5% BSA, 0.05% P 20, 0.25% CHAPS, 0.35M NaCl, 5 mM EDTA, 10 ppm Proclin300, pH 7.4) for 1 hour at room temperature. Diluted human hepatocyte growth factor controls and plasma samples (100 μL) in assay buffer were loaded in duplicates and incubated for 2 hours at room temperature, followed by the addition of 100 μL of affinity-purified goat antihuman hepatocyte growth factor biotin (150 ng/mL) for an additional 1 hour at room temperature. Avidin-conjugated horseradish peroxidase (40 ng/mL) in PBS, 0.5% BSA, 0.05% P 20, 10 ppm Proclin300, pH 7.4, was added (1 hour, room temperature), and the reaction was visualized by the addition of 100 μL of chromogenic substrate (TMB) for 15 minutes. The reaction was stopped with 1M phosphoric acid and absorbance at 450 nm was measured with reduction at 630 nm with an ELISA plate reader. Plates were washed 3 times with washing buffer (0.05% Tween 20/PBS) after each step. As a reference for quantification, a standard curve was established by a serial dilution of human hepatocyte growth factor (CritRS CR67; 2000-15.625 pg/mL).
HGF levels were log-transformed, and the Kolmogorov-Smirnoff test was used to test the resulting distribution for departure from the Gaussian distribution. The Cox-proportional model was used to test the log-transformed HGF levels for association with the progression free survival (PFS) and overall survival (OS). Association between the response and HGF levels was tested using the Wilcoxon rank-sum test. Kaplan-Meier (KM) curves were used to show display the relationship between the HGF levels and the time-to-event outcomes (PFS and OS). […] The cox-proportional model of the outcome as the function of the continuous HGF level was used to calculate the hazard ratio and corresponding p-value.
The subject of assay [5] is AKT and ERK phosphorylation. Briefly: Immunoblots of survival pathway re-activation. Format: cell-based, Human. To be noted: for PI3K/MAPK pathway re-activation by RTK ligand in presence of kinase inhibitor: 50 ng/mL ligand, kinase inhibitor 1 μM, 2 h. On the procedure:
FIGS. 2A-2C: pro-survival pathway re-activation correlated with RTK ligand rescue. FIG. 2A, Immunoblots showing the effect of acute RTK ligand treatment (50 ng/mL) on AKT and ERK phosphorylation following kinase inhibition (1 μM, 2 h). RTK ligand rescue is indicated, grey squares indicates complete rescue and black squares indicates partial rescue as determined by the initial screen (FIG. 1B). […] Cells were co-treated with 50 ng/mL RTK ligand in the presence of the appropriate secondary kinase inhibitor (0.5 μM) as indicated. […] Error bars represent mean+/−s.e.m. FIG. 2C, Immunoblots showing the effect of acute kinase inhibition (1 μM) in the presence and absence of RTK ligands (50 ng/mL, 2 h) on AKT and ERK phosphorylation. Cells were co-treated with secondary kinase inhibitor (0.5 μM) as appropriate.
Cell lysates were harvested using Nonidet-P40 lysis buffer, supplemented with Halt protease and phosphatase inhibitor cocktail (Thermo Scientific) and immunodetection of proteins was carried out using standard protocols. The phospho-HER2 (Y1248; #2247), HER2 (#2242), phospho-HER3 (Y1289; #4791), phospho-MET (Y1234/5; #3126), PDGFRα (#5241), phospho-FRS2α (Y196; #3864), IGF-1Rβ (#3027), phospho-ALK (Y1604; #3341), AKT (#9272), phospho-ERK (T202/Y204; #9101), ERK (#9102), GAPDH (#2118) and β-Tubulin (#2146) antibodies were purchased from Cell Signaling Technologies. Antibodies to HER3 (SC-285), MET (SC-10), phospho-PDGFRα (SC-12911), FRS2α (SC-8318), FGFR1 (SC-7945), FGFR2 (SC-122), FGFR3 (SC-13121) and ALK (SC-25447) were purchased from Santa Cruz Biotechnologies. Phospho-AKT (S473; #44-621G) antibody was purchased from Invitrogen. Phospho-EGFR (Y1068; ab5644) antibody was purchased from Abeam. EGFR (#610017) antibody was purchased from BD Biosciences. PARP (#14-6666-92) antibody was purchased from eBioscience. Densitometry was carried out using ImageJ software.
In general terms: A western blot detects proteins with antibodies after separation by electrophoresis.

The subject of assay [6] is kinase-addicted cancer cell lines. Briefly: RTK ligand matrix screen, Syto 60 cell viability. The format is cell-based, Human. The settings on record: for effect of RTK ligand on conferring drug resistance to kinase inhibitors: 50 ng/mL RTK ligand, 72 h, 41 cell lines. On the procedure:
(§1) Cell viability was assessed using the nucleic acid stain Syto 60 (Invitrogen). Cells (3000-5000 per well) were seeded into 96 well plates and allowed to adhere overnight. The next day, cells were treated with (or without) 50 ng/mL RTK ligand and concomitantly exposed to an increasing concentration range of the relevant kinase inhibitor. Following 72 hours drug exposure, cells were fixed in 4% formaldehyde, stained with Syto 60 and cell number was assessed using an Odyssey scanner (Li-Cor). Cell viability was calculated by dividing the fluorescence obtained from the drug-treated cells by the fluorescence obtained from the control (no drug) treated cells.
Cell lines. Human cancer cell lines were obtained and tested for sensitivity using an automated platform as previously described (Johannessen, C. M. et al. COT drives resistance to RAF inhibition through MAP kinase pathway reactivation. Nature 468, 968-972, doi:10.1038/nature09627 (2010)). Cell lines were maintained at 37° C. in a humidified atmosphere at 5% CO2 and grown in RPMI 1640 or DMEM/F12 growth media (GIBCO) supplemented with 10% fetal bovine serum (GIBCO), 50 units/mL penicillin and 50 μg/mL streptomycin (GIBCO).
Using 41 different human tumor-derived cell lines with previously defined kinase dependency^7-9, we undertook a “matrix analysis” to examine the effects of 6 different RTK ligands (HGF, EGF, FGF, PDGF, NRG1, IGF)—known to be widely expressed in cancer cells and tumor stroma^10—on drug response. Specifically, we quantified the effect of exposing these cancer cell lines (e.g., AU565 (HER2 amp)) to each ligand on the IC50 for a kinase inhibitor (e.g., lapatinib) that otherwise potently suppresses their growth within 72 hours (FIG. 1A). Nearly all of the kinase-dependent cancer cell lines tested, which included cells derived from multiple tissue types and with distinct kinase dependencies (EGFR, HER2, BRAF, MET, ALK, PDGFR, and FGFR), could be rescued from drug-induced growth inhibition by one or more RTK ligands, highlighting the potentially broad contribution of these ligands to the response to selective kinase inhibitors in kinase-addicted tumor cells (FIG. 1B).

Assay [7] deals with AU565 HER2 amplified breast cancer cells. Briefly: Syto 60 viability and long-term staining with lapatinib and ligands. To be noted: lapatinib 1 μM, 10 ng/mL NRG1, FGF or combination, 72 h. Format: cell-based, Human. On the procedure: FIGS. 3A-3G: HGF promoted lapatinib resistance in HER2 amplified cell lines. […] HGF rescue is indicated, black squares indicates partial rescue as determined by the initial screen (FIG. 1B). […] Cells were treated every three days for the indicated times. […] FIG. 3D, Immunoblots showing the re-activation of pAKT and pERK in two MET positive (AU565, HCC1954) and one MET negative (BT474) HER2 amplified cell lines. […] FIG. 3E, Representative slides showing MET expression in HER2 positive (3+) breast cancer tissues. FIG. 3F, selection of higher MET expressing AU565 cells following 3× treatments with lapatinib (1 μM) and HGF (50 ng/mL). FIG. 3G. […] Cells were treated twice weekly for the indicated times.
AU565 sells were co-treated with lapatinib (1 μM) in combination with 10 ng/mL NRG1 or FGF. […] Cells were treated with the appropriate kinase inhibitors in the presence of HGF (50 ng/mL). Cells were then treated with either 100 nM PI3K inhibitor (BEZ235) or MAPK inhibitor (AZD6244). Error bars represent mean+/−s.e.m.
as §1

Assay [8] has as its system HER2-amplified breast cancer cell lines. In words: Syto 60 cell viability, ligand rescue from lapatinib. The settings on record: 50 ng/mL ligand, 72 h. The format is cell-based, Human. The method, then: as §1
The ability of HGF to rescue 3 of 9 tested HER2-amplified breast cancer cell lines from growth inhibition by the HER2 kinase inhibitor lapatinib was also unexpected (FIG. 3A). These 3 cell lines all express MET, and expression was well correlated with the ability of HGF to attenuate lapatinib response (FIG. 3B).

Where [9] appears, read: 10 mice per group, 4 weeks, PR = tumour volume reduction >50% but <100%.

Take `C[C@@H](Oc1cc(-c2cnn(C3CCNCC3)c2)cnc1N)c1c(Cl)ccc(F)c1Cl` [crizotinib, 3-[(1R)-1-(2,6-dichloro-3-fluorophenyl)ethoxy]-5-(1-piperidin-4-ylpyrazol-4-yl)pyridin-2-amine]: the “emergence of lapatinib resistance under MET kinase inhibition” value in [1] is “delayed the emergence of lapatinib resistance”. For the same compound, the “reversal of HGF survival rescue by MET inhibition” value in assay [2] (PLX[…], HGF 50 ng/mL, crizotinib 0.5 μM, 72 h) is on record as “survival rescue by HGF was reversed”.

Take `N.N.[Cl][Pt][Cl]` [cisplatin]: the “RTK ligand rescue from growth suppressive effects of cisplatin” value in assay [3] is listed as “none of the tested RTK ligands could rescue cells”.

Turning to PLX4032, the “partial responses, PLX[…] alone” value in the assay with 928MEL xenografts (setting [9]) was 1. For the same compound, the “tumor regression, B-raf antagonist plus c-met antagonist versus PLX[…] alone” value with 928MEL xenografts is “statistically significant improvement in tumor regression”. Besides, the “hazard ratio, overall survival with increased HGF” value in assay [4] (Cox-proportional model, p<0.001) worked out at 1.8. Moreover, in assay [4] (Cox-proportional model, p<0.005), the “hazard ratio, progression free survival with increased HGF” value was determined as 1.42. The “overall survival, HGF above median versus below median” value in assay [4] (median plasma HGF 334 pg/mL, p<0.001) was “substantially reduced”. For the same compound, the “progression-free survival, HGF above median versus below median” value in assay [4] (median plasma HGF 334 pg/mL, p=0.005) is given as “substantially reduced”. The “correlation of MET expression with PLX[…] sensitivity” value in [2] (HGF-rescuable cell lines) is “inversely correlated”.

Regarding “IGF: recombinant human IGF-1 purchased from Peprotech”, the “PI3K/MAPK pathway re-activation by RTK ligand in presence of kinase inhibitor” value in assay [5] is reported as “only re-activated the PI3K”. Moreover, the “downstream signalling after receptor activation in non-rescued cells” value in [5] (COLO-201 and BT474 cell lines, IGF) is recorded as “downstream signalling via PI3K or MAPK was not observed”. For the same compound, the “effect of RTK ligand on conferring drug resistance to kinase inhibitors” value (“effect of RTK ligand … to kinase inhibitors” for short) in [6] is “relatively little effect”.

Consider “PDGF: recombinant human PDGF-AB purchased from Peprotech”, for which the “effect of RTK ligand … to kinase inhibitors” value in assay [6] was “relatively little effect”.

As for “FGF: recombinant human FGF-basic purchased from Peprotech”, the “PI3K/MAPK pathway re-activation by RTK ligand in presence of kinase inhibitor” value in assay [5] was “only re-activated the MAPK pathway”. Moreover, the “rescue from kinase inhibition by activating both PI3K and MAPK pathways” value in assay [7] was “additive”. In addition, the “effect of RTK ligand … to kinase inhibitors” value in assay [6] is “most broadly active ligands”.

For “NRG1: HER3 ligand, rhNRG1-β1 purchased from R and D Systems”, in [5], the “PI3K/MAPK pathway re-activation by RTK ligand in presence of kinase inhibitor” value is listed as “only re-activated the PI3K”. The “rescue from kinase inhibition by activating both PI3K and MAPK pathways” value in assay [7] is listed as “additive”. The “effect of RTK ligand … to kinase inhibitors” value in assay [6] was “most broadly active ligands”. Also, the “rescue despite activation of receptor and a downstream survival effector” value in assay [6] (H2228 and H358 cells with HGF, COLO-201 cells with NRG1) is given as “not sufficient to rescue cells from kinase inhibition”. The “number of HER2-amplified breast cancer cell lines rescued from lapatinib” value in [8] is on record as 8 of the 9.

Take `CCN1CC[C@@H](Nc2n[nH]c3nccc(Oc4ccc(NC(=O)c5ccnn(-c6ccc(F)cc6)c5=O)cc4F)c23)[C@@H](F)C1` [GDC-0712, N-(4-(3-((3S,4R)-1-ethyl-3-fluoropiperidine-4-ylamino)-1H-pyrazolo[3,4-b]pyridin-4-yloxy)-3-fluorophenyl)-2-(4-fluorophenyl)-3-oxo-2,3-dihydropyridazine-4-carboxamide]: the “partial responses, PLX[…] with MET kinase inhibition” value in the assay on 928MEL xenografts (setting [9]) came to 8. For the same compound, the “tumor regression, B-raf antagonist plus c-met antagonist versus PLX[…] alone” value in the assay with 928MEL xenografts was “greater effect on tumor regression”.

Turning to `Cn1c(=O)n(-c2ccc(C(C)(C)C#N)cc2)c2c3cc(-c4cnc5ccccc5c4)ccc3ncc21` [BEZ235, reference compound], in [6] (100 nM BEZ235 or AZD6244, HGF 50 ng/mL, with kinase inhibitor), the “reversal of HGF-induced rescue by PI3K versus MAPK pathway inhibition” value was “more potent at reversing ligand—induced rescue”.

For the origin of these results see US20150125452A1, “COMBINATION TREATMENTS COMPRISING C-MET ANTAGONISTS AND B-RAF ANTAGONISTS” (GENENTECH, INC., priority 2011, published 2015).
